# Reference: paper PMC12133982, “Predominant T-cell epitopes of SARS-CoV-2 restricted by multiple prevalent HLA-B and HLA-C allotypes in Northeast Asia” (Frontiers in Immunology, 2025)
# Values joined by “and” are separate entries in the source; they are usually repeats but may differ in a detail not shown here. Equal values may be shown once. Peptide text beside a SMILES is read from it.
# Experiments:
# [1] = molecular target: HLA-B4601 (Homo sapiens, UniProt P01889, A329T/A93R/C349S/D201E/E100V/E187L/E204Q/E69M/E70A/I90K/K202T/N87E/R155S/R180W/S121R/S35A/S48A/V306I/V36M/Y140S); test: Competitive peptide binding assay, CIR-B4601; details: HMy2.CIR-B4601 cells, reference Cy5-[…], class from inhibition at 5 and 15 μM, flow cytometry MFI; read-out: Binding affinity with HLA-B4601
# Experimental: (§1) Then, competitive peptide binding assays were performed.
# [2] = molecular target: HLA-B1501 (Homo sapiens, UniProt P01889, A329T/A93T/A95T/C349S/D201E/D98Y/E187L/E204Q/E69M/E70A/K202T/N87E/Q94N/R155S/R180W/S121R/S35A/S48A/V306I/V36M/Y140S/Y91S); test: Competitive peptide binding assay, CIR-B1501; details: HMy2.CIR-B1501 cells, reference Cy5-[…], class from inhibition at 5 and 15 μM, flow cytometry MFI; read-out: Binding affinity with HLA-B1501
# Experimental: as §1
# [3] = molecular target: HLA-B4403 (Homo sapiens, UniProt P01889, A223V/A65T/A93T/A95T/D201E/D98Y/E176V/E187L/E204Q/E69K/G107R/H137Y/K202T/L105A/L119I/N104T/N87E/Q56L/Q94N/R106L/R155S/R180L/S101N/S121R/S35A/S48T/T118I/V36M/W191S/Y140D/Y91S); test: Competitive peptide binding assay, CIR-B4403; details: HMy2.CIR-B4403 cells, reference Cy5-CYMEAVAL, class from inhibition at 5 and 15 μM, flow cytometry MFI; read-out: Binding affinity with HLA-B4403
# Experimental: as §1
# [4] = molecular target: HLA-B1302 (Homo sapiens, UniProt P01889, A65T/A93T/A95T/D138N/D201E/D98Y/E176V/E204Q/E69M/E70A/G107R/K202T/L105A/L119W/N104T/N87E/Q94N/R106L/R155S/R169L/R180L/S101N/S121T/S35A/S48T/V127L/V36M/Y140L/Y91S); test: Competitive peptide binding assay, CIR-B1302; details: HMy2.CIR-B1302 cells, reference Cy5-MMWYWGPSL, class from inhibition at 5 and 15 μM, flow cytometry MFI; read-out: Binding affinity with HLA-B1302
# Experimental: as §1
# [5] = molecular target: HLA-B1301 (Homo sapiens, UniProt P01889, A65T/A93T/A95T/D138N/D201E/D98Y/E176V/E204Q/E69M/E70A/G107R/K202T/L105A/L119I/N104T/N87E/Q94N/R106L/R155S/R169L/R180L/S101N/S121R/S35A/S48T/T118I/V127L/V36M/Y140L/Y91S); test: Competitive peptide binding assay, CIR-B1301; details: HMy2.CIR-B1301 cells, reference Cy5-[…], class from inhibition at 5 and 15 μM, flow cytometry MFI; read-out: Binding affinity with HLA-B1301
# Experimental: as §1
# [6] = molecular target: HLA-B3501 (Homo sapiens, UniProt P01889, A329T/A93T/A95T/C349S/D201E/D98Y/E176V/E187L/E204Q/E69T/I218V/K202T/L119I/Q94N/R155S/R180L/S121R/S35A/S48A/T118I/V127L/V306I/V36M/Y140S/Y91F); test: Competitive peptide binding assay, CIR-B3501; details: HMy2.CIR-B3501 cells, reference Cy5-[…], class from inhibition at 5 and 15 μM, flow cytometry MFI; read-out: Binding affinity with HLA-B3501
# Experimental: as §1
# [7] = molecular target: HLA-B5801 (Homo sapiens, UniProt P01889, A329T/C349S/D201E/D98Y/E176V/E187L/E204Q/E69T/G107R/I218V/I90N/K202T/L105A/L119I/N104I/N87E/Q89R/Q94S/R106L/R155S/R180L/R86G/S101N/S121R/S35A/S48A/T118I/V127L/V306I/V36M/Y140S/Y91M); test: Competitive peptide binding assay, CIR-B5801; details: HMy2.CIR-B5801 cells, reference Cy5-[…], class from inhibition at 5 and 15 μM, flow cytometry MFI; read-out: Binding affinity with HLA-B5801
# Experimental: as §1
# [8] = molecular target: HLA-B1502 (Homo sapiens, UniProt P01889, A329T/A93T/A95T/C349S/D201E/D98Y/E187L/E204Q/E69M/E70A/H137Y/K202T/L119I/Q94N/R155S/R180L/S121R/S35A/S48A/T118I/V306I/V36M/Y140S/Y91S); test: Competitive peptide binding assay, CIR-B1502; details: HMy2.CIR-B1502 cells, reference Cy5-[…], class from inhibition at 5 and 15 μM, flow cytometry MFI; read-out: Binding affinity with HLA-B1502
# Experimental: as §1
# [9] = molecular target: T1, HLA-B0702 (Homo sapiens, UniProt P01889); test: Competitive peptide binding assay, CIR-B0702; details: HMy2.CIR-B0702 cells, reference Cy5-[…], class from inhibition at 5 and 15 μM, flow cytometry MFI
# T1 construct: expressed in transfected cells; host or cells: HMy2.CIR
# Experimental: as §1
# [10] = molecular target: HLA-B4001 (Homo sapiens, UniProt P01889, A65T/A93T/A95T/D138N/D98Y/E176V/E69K/N87E/Q56L/Q94N/R180L/S121R/S35A/S48T/T167S/V36M/W171L/Y33H/Y91S); test: Competitive peptide binding assay, CIR-B4001; details: HMy2.CIR-B4001 cells, reference Cy5-[…], class from inhibition at 5 and 15 μM, flow cytometry MFI; read-out: Binding affinity with HLA-B4001
# Experimental: as §1
Structure (SMILES),IC50 [1],IC50 [2],IC50 [3],IC50 [4],IC50 [5],IC50 [6],IC50 [7],IC50 [8],IC50 [9],IC50 [10]
CC(C)C[C@H](NC(=O)[C@H](CC(N)=O)NC(=O)[C@H](CCCCN)NC(=O)[C@@H](NC(=O)[C@H](CCCNC(=N)N)NC(=O)[C@H](CO)NC(=O)[C@H](Cc1ccc(O)cc1)NC(=O)[C@@H](NC(=O)[C@@H](N)Cc1ccc(O)cc1)C(C)C)C(C)C)C(=O)O [Epitope Y3] (H-YVYSRVKNL-OH; N-terminus and C-terminus assumed),> 15 µM,5 to 15 µM,< 5 µM,> 15 µM,> 15 µM,> 15 µM,,,,
CC[C@H](C)[C@H](NC(=O)[C@H](CCCNC(=N)N)NC(=O)[C@H](CC(C)C)NC(=O)[C@H](CCSC)NC(=O)[C@H](CC(N)=O)NC(=O)[C@@H]1CCCN1C(=O)[C@H](CCSC)NC(=O)[C@H](C)NC(=O)[C@@H](N)CCCNC(=N)N)C(=O)O [Epitope Y77] (H-RAMPNMLRI-OH; N-terminus and C-terminus assumed),5 to 15 µM,,> 15 µM,< 5 µM,> 15 µM,> 15 µM,5 to 15 µM,,,
CC[C@H](C)[C@H](NC(=O)[C@H](CC(C)C)NC(=O)[C@H](CCC(N)=O)NC(=O)[C@H](CCC(N)=O)NC(=O)[C@@H](NC(=O)[C@@H](NC(=O)[C@H](Cc1ccc(O)cc1)NC(=O)[C@@H](NC(=O)[C@H](CCC(N)=O)NC(=O)[C@@H](N)CC(C)C)[C@@H](C)O)C(C)C)[C@@H](C)O)C(=O)O [Epitope Y118] (H-LQTYVTQQLI-OH; N-terminus and C-terminus assumed),> 15 µM,,5 to 15 µM,< 5 µM and 5 to 15 µM,,> 15 µM,> 15 µM,> 15 µM,,
CSCC[C@H](NC(=O)[C@H](CO)NC(=O)[C@H](CCC(N)=O)NC(=O)[C@H](CCC(N)=O)NC(=O)[C@H](CC(C)C)NC(=O)[C@H](CCC(N)=O)NC(=O)[C@H](CCCCN)NC(=O)[C@H](CO)NC(=O)[C@@H](N)Cc1ccccc1)C(=O)O [Epitope Y135] (H-FSKQLQQSM-OH; N-terminus and C-terminus assumed),< 5 µM,< 5 µM,,,> 15 µM,> 15 µM,5 to 15 µM,,5 to 15 µM,
CSCC[C@H](NC(=O)[C@H](C)NC(=O)[C@@H]1CCCN1C(=O)[C@H](CC(=O)O)NC(=O)[C@H](C)NC(=O)[C@H](C)NC(=O)[C@H](Cc1ccc(O)cc1)NC(=O)[C@@H](NC(=O)[C@@H](N)CC(C)C)C(C)C)C(=O)O [Epitope Y165] (H-LVYAADPAM-OH; N-terminus and C-terminus assumed),5 to 15 µM,> 15 µM,,,5 to 15 µM,< 5 µM,> 15 µM,5 to 15 µM,5 to 15 µM,> 15 µM
